# Results reported in patent publication US20250270222A1, “AP2 ASSOCIATED KINASE 1 INHIBITORS AND USES THEREOF” (Satellos Bioscience Inc., priority 2023, published 2025).
# Target: AAK1 (amino acids T27-A365) (Homo sapiens (Human), UniProt Q2M2I8)
# Experiment: AAK1 pSENs assay
# Assay type: biochemical
# Conditions: ratio of AAK1 pSENs activity to GAK pSENs activity
# Protocol: The recombinant proteins were independently expressed in Esherichia coli BL21(DE3) cells cultured in Luria-Bertani (LB) medium until OD600 reached 0.6-0.8, then cooled to 15° C., and supplemented with 0.5 mM isopropyl 1-thio-D-galactopyranoside (IPTG) induce protein expression 16 h. Cells were harvested and resuspended in lysis buffer (50 mM HEPES pH 7.5, 500 mM NaCl, 5 mM imidazole, 5% glycerol, 0.5 mM Tris (2-carboxyethyl) phosphine (TCEP), cOmplete Protease Inhibitor Tablet (Roche)) and lysed by microfluidics high pressure homogenizer (UH-06, Union-Biotech). Proteins were purified using Ni-Affinity chromatography (His FF column, Bestchrom) and eluted stepwise in binding buffer with 20-300 mM imidazole. Removal of the hexahistidine tag was performed at 4° C. overnight using recombinant TEV protease and reacted with BirA to obtain the corresponding biotinylated-AAK1. BIKE or GAK proteins. Further separated in the reverse Strep column (Strep-Tactin® XT, IBA). The Biotin elution sample was collected containing untagged biotinylated protein was then purified by Ion-exchange chromatography (Mono Q 10/100 GL, Cytiva) and Size-exclusion chromatography (HiLoad 16/600 Superdex 200 pg, Cytiva). The pure protein was stored in a storage buffer 50 mM HEPES (pH 7.5), 300 mM NaCl, 5% glycerol at −80° C. Protein were characterized by SDS-PAGE. LC-MS and aSEC.
# This example describes one illustrative method for determining the IC50 of the compounds of the present invention against AAK1 (amino acids T27-A365). AAK1 protein was dissolved at 20 nM in 1× enzyme solution (50 mM HEPES pH7.5, 10 mM MgCl2, 1 mM DTT, 1% glycerol, 0.5 mM EGTA, 0.01% Briji35, 0.02% BSA) and 12.5 ul was incubated with 250 nl DMSO or 250 nl compound in DMSO at 25° C. for 15 min. The reaction was started by addition of 12.5 ul of 30 uM AQT0759 (Assayquant, CSKS-AQT0759B) and 70 uM ATP which were diluted in 1× substrate dilution buffer (50 mM HEPES pH7.5, 10 mM MgCl2, 1 mM DTT, 1% glycerol, 0.5 mM EGTA, 0.01% Briji35).
# Sequence of AAK1 (amino acids T27-A365) (Q2M2I8 27-365): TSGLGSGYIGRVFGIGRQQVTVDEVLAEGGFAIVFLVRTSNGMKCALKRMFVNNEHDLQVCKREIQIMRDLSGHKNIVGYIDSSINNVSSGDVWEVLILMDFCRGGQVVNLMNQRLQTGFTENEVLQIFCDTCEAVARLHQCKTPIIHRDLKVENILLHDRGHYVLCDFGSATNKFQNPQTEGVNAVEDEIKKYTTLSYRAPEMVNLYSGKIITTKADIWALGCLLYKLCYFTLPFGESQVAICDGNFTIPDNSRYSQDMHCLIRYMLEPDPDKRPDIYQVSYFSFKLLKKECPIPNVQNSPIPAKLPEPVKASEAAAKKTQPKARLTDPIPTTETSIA
row,Compound,AAK1:GAK pSENs Selectivity
1,"CC1(OC(=O)N2CCN(c3ccn4ncc(-c5ccc(C(N)=O)cc5)c4n3)CC2)COC1 [Compound I-3, (3-methyloxetan-3-yl)-4-[3-(4-carbamoylphenyl)pyrazolo[1,5-a]pyrimidin-5-yl]piperazine-1-carboxylate]",B (B: 0.016-0.075)
2,"CC1(OC(=O)N2CCN(c3ccn4ncc(-c5cccc(C(N)=O)c5)c4n3)CC2)COC1 [Compound I-4, (3-methyloxetan-3-yl)-4-[3-(3-carbamoylphenyl)pyrazolo[1,5-a]pyrimidin-5-yl]piperazine-1-carboxylate]",C (C: 0.076-0.15)
3,"COc1ncccc1-c1cnn2ccc(N3CCN(C(=O)OC4CCNC4)CC3)nc12 (centres unmarked) [Compound I-5, Pyrrolidin-3-yl4-[3-(2-methoxy-3-pyridyl)pyrazolo[1,5-a]pyrimidin-5-yl]piperazine-1-carboxylate]",B (B: 0.016-0.075)
4,"COc1ncccc1-c1cnn2ccc(N3CCN(C(=O)OC4(C)CCNC4)CC3)nc12 (centres unmarked) [Compound I-8, (3-Methylpyrrolidin-3-yl)-4-[3-(2-methoxy-3-pyridyl)pyrazolo[1,5-a]pyrimidin-5-yl]piperazine-1-carboxylate]",B (B: 0.016-0.075)
5,"C#CC1(OC(=O)N2CCN(c3ccn4ncc(-c5cccnc5OC)c4n3)CC2)CCNC1 (centres unmarked) [Compound I-9, (3-Ethynylpyrrolidin-3-yl) 4-[3-(2-methoxy-3-pyridyl)pyrazolo[1,5-a]pyrimidin-5-yl]piperazine-1-carboxylate]",B (B: 0.016-0.075)
6,"CN(CCNc1ccn2ncc(-c3cccnc3OC3CC3)c2n1)C(=O)OC(C)(C)C [Compound I-12, tert-butyl N-[2-[[3-[2-(Cyclopropoxy)-3-pyridyl]pyrazolo[1,5-a]pyrimidin-5-yl]amino]ethyl]-N-methyl-carbamate]",A (A: ≤0.015)
7,"CC1(OC(=O)N2CCN(c3ccn4ncc(-c5cccnc5OC5CC5)c4n3)CC2)CCNC1 (centres unmarked) [Compound I-13-5, (3-Methylpyrrolidin-3-yl) 4-[3-[2-(cyclopropoxy)-3-pyridyl]pyrazolo [1,5-a]pyrimidin-5-yl]piperazine-1-carboxylate]",B (B: 0.016-0.075)
8,"C[C@@]1(OC(=O)N2CCN(c3ccn4ncc(-c5cccnc5OC5CC5)c4n3)CC2)CCNC1 [Compound I-14, [(3R)-3-Methylpyrrolidin-3-yl]-4-[3-[2-(cyclopropoxy)-3-pyridyl]pyrazolo[1,5-a]pyrimidin-5-yl]piperazine-1-carboxylate]",A (A: ≤0.015)
9,"C#C[C@]1(OC(=O)N2CCN(c3ccn4ncc(-c5cccnc5OC5CC5)c4n3)CC2)CCNC1 [Compound I-15, [(3R)-3-Ethynylpyrrolidin-3-yl]-4-[3-[2-(cyclopropoxy)-3-pyridyl]pyrazolo[1,5-a]pyrimidin-5-yl]piperazine-1-carboxylate]",B (B: 0.016-0.075)
10,"C#C[C@@]1(OC(=O)N2CCN(c3ccn4ncc(-c5cccnc5OC5CC5)c4n3)CC2)CCNC1 [Compound I-16, [(3S)-3-Ethynylpyrrolidin-3-yl]-4-[3-[2-(cyclopropoxy)-3-pyridyl]pyrazolo[1,5-a]pyrimidin-5-yl]piperazine-1-carboxylate]",B (B: 0.016-0.075)
11,"C#CC1(OC(=O)N2CCN(c3ccn4ncc(-c5cccnc5OC5CC5)c4n3)CC2)CCNC1 (centres unmarked) [Compound I-16-7, 3-ethynylpyrrolidin-3-yl-4-(3-(2-cyclopropoxypyridin-3-yl)pyrazolo[1,5-a]pyrimidin-5-yl)piperazine-1-carboxylate]",B (B: 0.016-0.075)
12,"CC(C)Oc1ncccc1-c1cnn2ccc(N3CCN(C(=O)OC4(C)CCNC4)CC3)nc12 (centres unmarked) [Compound I-21-5, (3-Methylpyrrolidin-3-yl)-4-[3-(2-isopropoxy-3-pyridyl)pyrazolo[1,5-a]pyrimidin-5-yl]piperazine-1-carboxylate]",B (B: 0.016-0.075)
13,"CC(C)Oc1ncccc1-c1cnn2ccc(N3CCN(C(=O)O[C@]4(C)CCNC4)CC3)nc12 [Compound I-22, [(3R)-3-methylpyrrolidin-3-yl]4-[3-(2-isopropoxy-3-pyridyl)pyrazolo[1,5-a]pyrimidin-5-yl]piperazine-1-carboxylate]",B (B: 0.016-0.075)
14,"CC(C)(C)OC(=O)N1CCC(N2C[C@H](OC(=O)N3CCN(c4ccn5ncc(-c6cccnc6OC6CC6)c5n4)CC3)CC2=O)CC1 [Compound I-31, (R)-1-(1-(tert-Butoxycarbonyl)piperidin-4-yl)-5-oxopyrrolidin-3-yl 4-(3-(2-cyclopropoxypyridin-3-yl)pyrazolo[1,5-a]pyrimidin-5-yl)piperazine-1-carboxylate]",D (D: 0.16-1.00)
15,"CN(CCN1C[C@@H](OC(=O)N2CCN(c3ccn4ncc(-c5cccnc5OC5CC5)c4n3)CC2)CC1=O)C(=O)OC(C)(C)C [Compound I-35, (S)-1-(2-((tert-butoxycarbonyl)(methyl)amino)ethyl)-5-oxopyrrolidin-3-yl-4-(3-(2-cyclopropoxypyridin-3-yl)pyrazolo[1,5-a]pyrimidin-5-yl)piperazine-1-carboxylate]",B (B: 0.016-0.075)
16,"O=C1C[C@H](OC(=O)N2CCN(c3ccn4ncc(-c5cccnc5OC5CC5)c4n3)CC2)CN1CCOCc1ccccc1 [Compound I-37, [(3S)-1-(2-benzyloxyethyl)-5-oxo-pyrrolidin-3-yl]-4-[3-[2-(cyclopropoxy)-3-pyridyl]pyrazolo[1,5-a]pyrimidin-5-yl]piperazine-1-carboxylate]",A (A: ≤0.015)
17,"O=C1C[C@H](OC(=O)N2CCN(c3ccn4ncc(-c5cccnc5NC5CC5)c4n3)CC2)CN1 [Compound I-45, [(3S)-5-Oxopyrrolidin-3-yl]4-[3-[2-(cyclopropylamino)-3-pyridyl]pyrazolo[1,5-a]pyrimidin-5-yl]piperazine-1-carboxylate]",E (E: >1.00)
18,"C[C@@]1(OC(=O)N2CCN(c3ccn4ncc(-c5cccnc5OC5CC5)c4n3)CC2)CCN(CC(N)=O)C1 [Compound I-51, (R)-1-(2-amino-2-oxoethyl)-3-(methylpyrrolidin-3-yl)-4-(3-(2-cyclopropoxypyridin-3-yl)pyrazolo[1,5-a]pyrimidin-5-yl)piperazine-1-carboxylate]",A (A: ≤0.015)
19,"CN(CCNc1ccn2ncc(-c3cccnc3OC3CC3)c2n1)C(=O)O[C@]1(C)CCNC1 [Compound I-61, (R)-3-methylpyrrolidin-3-yl (2-((3-(2-cyclopropoxypyridin-3-yl)pyrazolo[1,5-a]pyrimidin-5-yl)amino)ethyl)(methyl)carbamate]",B (B: 0.016-0.075)
20,"COc1ncccc1-c1cnn2ccc(NCCN(C)C(=O)O[C@H]3CO[C@H]4OCC[C@H]43)nc12 [Compound I-70, (3R,3aS,6aR)-hexahydrofuro[2,3-b]furan-3-yl (2-((3-(2-methoxypyridin-3-yl)pyrazolo[1,5-a]pyrimidin-5-yl)amino)ethyl)(methyl)carbamate]",B (B: 0.016-0.075)
21,"CN(CCNc1ccn2ncc(-c3cccnc3OC3CC3)c2n1)C(=O)O[C@H]1CO[C@H]2OCC[C@H]21 [Compound I-71, (3R,3aS,6aR)-hexahydrofuro[2,3-b]furan-3-yl (2-((3-(2-cyclopropoxypyridin-3-yl)pyrazolo[1,5-a]pyrimidin-5-yl)amino)ethyl)(methyl)carbamate]",B (B: 0.016-0.075)
22,COc1cnc(OC2CC2)c(-c2cnn3ccc(N4CCN(C(=O)O[C@H]5CC(=O)N(C)C5)CC4)nc23)c1 [Compound I-87],A (A: ≤0.015)
23,CN1C[C@@H](OC(=O)N2CCN(c3ccn4ncc(-c5cc(OC(F)(F)F)cnc5OC5CC5)c4n3)CC2)CC1=O [Compound I-88],B (B: 0.016-0.075)
24,CN1C[C@H](OC(=O)N2CCN(c3ccn4ncc(-c5cccnc5OC5CC5)c4n3)CC2)CC1=O [Compound I-94],A (A: ≤0.015)
25,"CN1C[C@@H](OC(=O)N2CCN(c3ccn4ncc(Cl)c4n3)CC2)CC1=O [Compound I-96, [(3S)-1-methyl-5-oxo-pyrrolidin-3-yl]-4-(3-chloropyrazolo[1,5-a]pyrimidin-5-yl)piperazine-1-carboxylate]",E (E: >1.00)
26,"CN1C[C@@H](OC(=O)N2CCN(c3ccn4nccc4n3)CC2)CC1=O [Compound I-97, [(3S)-1-methyl-5-oxo-pyrrolidin-3-yl]-4-pyrazolo[1,5-a]pyrimidin-5-ylpiperazine-1-carboxylate]",E (E: >1.00)
